According to PubChem BioAssay (NCI):
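Dose response: 5 concentrations. Exposure: 48 h. Format: 96-well plates. Endpoint: linear interpolation; highest concentration if not reached. At the TGI there is no net growth.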

Assays:
Assay in all cases: NCI-60 cell line screen, 48 h
OVCAR-3 ovarian = system: OVCAR-3 ovarian
NCI-H226 lung = system: NCI-H226 lung
HOP-62 NSCLC = system: HOP-62 NSCLC
LOX IMVI melanoma = system: LOX IMVI melanoma
U251 CNS = system: U251 CNS
CAKI-1 renal = system: CAKI-1 renal
DU-145 prostate = system: DU-145 prostate
MDA-MB-231 breast = system: MDA-MB-231 breast
SR leukemia = system: SR leukemia
SN12C renal = system: SN12C renal
KM12 colon = system: KM12 colon
MDA-N = system: MDA-N
SK-MEL-28 melanoma = system: SK-MEL-28 melanoma
UACC-257 melanoma = system: UACC-257 melanoma
HCC-2998 colon = system: HCC-2998 colon
HCT-15 colon = system: HCT-15 colon
SF-539 CNS = system: SF-539 CNS
786-0 renal = system: 786-0 renal

Compound | TGI (OVCAR-3 ovarian) | TGI (NCI-H226 lung) | TGI (HOP-62 NSCLC) | TGI (LOX IMVI melanoma) | TGI (U251 CNS) | TGI (CAKI-1 renal) | TGI (DU-145 prostate) | TGI (MDA-MB-231 breast) | TGI (SR leukemia) | TGI (SN12C renal) | TGI (KM12 colon) | TGI (MDA-N) | TGI (SK-MEL-28 melanoma) | TGI (UACC-257 melanoma) | TGI (HCC-2998 colon) | TGI (HCT-15 colon) | TGI (SF-539 CNS) | TGI (786-0 renal)
O=c1ccn(COC(COCc2ccccc2)COCc2ccccc2)c(=O)[nH]1 | > 100 µM | > 100 µM | > 100 µM | > 100 µM | > 100 µM | > 100 µM | > 100 µM | > 100 µM | > 100 µM | > 100 µM | > 100 µM | > 100 µM | > 100 µM | > 100 µM | > 100 µM | > 100 µM | – | –
O=[N+]([O-])C(=C(N1CCOCC1)N1CCOCC1)/C(Cl)=C(\Cl)Br | 28.5 µM | 60.5 µM | > 100 µM | 41.1 µM | 39.9 µM | – | > 100 µM | 31.8 µM | 37.1 µM | 31.7 µM | 76.3 µM | 70.6 µM | 33.8 µM | 31.8 µM | > 100 µM | 28.9 µM | 57.9 µM | 58.4 µM
NCCCC[C@H](N)C(=O)Nc1ccc(-c2nc3ccccc3s2)cc1 | 37.2 µM | 71.1 µM | 62 µM | 72 µM | 29.4 µM | > 100 µM | 49.1 µM | 37.6 µM | 36.2 µM | 74.3 µM | 34.9 µM | 29 µM | 33.8 µM | > 100 µM | 81.5 µM | 33.7 µM | – | 32.9 µM
CC(C)NC(=O)N(Nc1ccccc1)C(C)(C)C | > 100 µM | > 100 µM | > 100 µM | > 100 µM | > 100 µM | > 100 µM | – | > 100 µM | > 100 µM | > 100 µM | > 100 µM | > 100 µM | > 100 µM | > 100 µM | > 100 µM | > 100 µM | > 100 µM | > 100 µM
CC(C)C(=O)Nc1cc(C(F)(F)F)ccc1[N+](=O)[O-] | > 100 µM | > 100 µM | > 100 µM | > 100 µM | > 100 µM | > 100 µM | > 100 µM | > 100 µM | – | > 100 µM | > 100 µM | > 100 µM | > 100 µM | > 100 µM | > 100 µM | > 100 µM | > 100 µM | > 100 µM
CC1=C(c2ccccc2)NC(=S)C(C)C(c2ccccc2)=N1 (stereo not given) | – | > 100 µM | > 100 µM | > 100 µM | > 100 µM | > 100 µM | > 100 µM | > 100 µM | > 100 µM | > 100 µM | > 100 µM | 46.8 µM | > 100 µM | > 100 µM | > 100 µM | > 100 µM | 30.9 µM | > 100 µM
S=C1CCSc2c(ccc3ccccc23)N1 | > 100 µM | > 100 µM | > 100 µM | > 100 µM | > 100 µM | > 100 µM | > 100 µM | > 100 µM | > 100 µM | > 100 µM | > 100 µM | > 100 µM | > 100 µM | > 100 µM | – | > 100 µM | – | > 100 µM
O=C1C(=O)N(c2cccc(C(F)(F)F)c2)C(=S)N1c1ccccc1 | – | 97.5 µM | > 100 µM | – | > 100 µM | 79.4 µM | > 100 µM | 57.2 µM | > 100 µM | > 100 µM | > 100 µM | 71.9 µM | 88.8 µM | 71.8 µM | > 100 µM | 40.7 µM | 80.6 µM | > 100 µM
CN(/N=C/c1cccc2cccnc12)c1ccc(Cl)cc1[N+](=O)[O-] | > 100 µM | > 100 µM | > 100 µM | – | > 100 µM | > 100 µM | > 100 µM | > 100 µM | > 100 µM | > 100 µM | > 100 µM | > 100 µM | – | > 100 µM | > 100 µM | > 100 µM | > 100 µM | > 100 µM
CN1C(=O)C2(C=CC(O)CC2)c2ccccc21 (stereo not given) | > 100 µM | > 100 µM | > 100 µM | > 100 µM | > 100 µM | > 100 µM | > 100 µM | > 100 µM | > 100 µM | > 100 µM | > 100 µM | > 100 µM | > 100 µM | > 100 µM | > 100 µM | > 100 µM | – | > 100 µM
CC[C@@]1(C)CCC2c3ccc(O)cc3CC[C@H]2C1C (stereo not given in full) | 37 µM | – | 33 µM | 31.9 µM | 30.9 µM | 35.7 µM | 30.4 µM | – | 31.6 µM | 34.3 µM | 36.7 µM | 25.8 µM | 32 µM | 29.3 µM | 27.1 µM | 31.4 µM | 35.4 µM | 29.8 µM
CS(=O)(=O)c1ccc(N=C/C=C/Nc2ccc(S(C)(=O)=O)cc2)cc1 | > 100 µM | > 100 µM | > 100 µM | – | > 100 µM | > 100 µM | > 100 µM | > 100 µM | > 100 µM | > 100 µM | > 100 µM | > 100 µM | > 100 µM | > 100 µM | > 100 µM | > 100 µM | > 100 µM | > 100 µM
COc1cc(-c2cc(=O)c3c(O)c(CC=C(C)C)c(O)cc3o2)ccc1O | > 50 µM | > 50 µM | > 50 µM | > 50 µM | > 50 µM | 28 µM | > 50 µM | > 50 µM | 41.9 µM | > 50 µM | – | 20.2 µM | 26.7 µM | > 50 µM | – | > 50 µM | 47.6 µM | –
C=CCN(C(=O)OC(C)(C)C)[C@H](C)C(=O)N[C@@H](C)C(=O)OC | > 100 µM | > 100 µM | > 100 µM | > 100 µM | > 100 µM | > 100 µM | > 100 µM | > 100 µM | > 100 µM | > 100 µM | > 100 µM | > 100 µM | > 100 µM | – | – | > 100 µM | > 100 µM | > 100 µM
